Reference: ChEMBL document CHEMBL5331069, “Potential of glycyrrhizic and glycyrrhetinic acids against influenza type A and B viruses: A perspective to develop new anti-influenza compounds and drug delivery systems” (Eur J Med Chem, 2023)
≈ marks a conversion by molar mass, not a printed value.

Experiments:
[1] = test system: Influenza A virus; assay: Antiviral activity against influenza A virus H1N1/pdm09 infected in MDCK cells assessed as reduction in viral titer preincubated with compound for 1 hr followed by virus infection incubated for 48 hrs followed by addition of chicken erythrocytes measured after 40 mins by hemagglutination assay; format: functional, organism-based
[2] = Cytotoxicity against MDCK cells assessed as reduction in cell viability incubated for 48 hrs by MTT assay; format: toxicity, cell-based, Canis lupus familiaris; details: dog
[3] = Cytotoxicity against MDCK cells assessed as reduction in cell viability incubated for 48 hrs; format: toxicity, cell-based, Canis lupus familiaris; details: dog
[4] = Water solubility of the compound; format: physicochemical
[5] = Cytotoxicity against MDCK cells assessed as reduction in cell viability incubated for 48 hrs by CellTiter-Glo assay; format: toxicity, cell-based, Canis lupus familiaris; details: dog
[6] = test system: Influenza A virus; assay: Antiviral activity against Influenza A virus A/WSN/33(H1N1) infected in MDCK cells assessed as inhibition of virus-induced cytopathic effect incubated for 48 hrs by CellTiter-Glo assay; format: functional, organism-based
[7] = Oral bioavailability in rat; format: ADME, organism-based; details: in vivo
[8] = Water solubility of the compound by shake flask method; format: physicochemical; details: buffer
[9] = test system: Influenza A virus; assay: Antiviral activity against Influenza A virus A/Aichi/2/68(H3N2) infected in MDCK cells assessed as inhibition of virus-induced cytopathicity; format: functional, organism-based
[10] = test system: Influenza A virus; assay: Antiviral activity against influenza A virus A/WSN/33(H1N1) infected in BALB/c mouse assessed as log reduction in viral load in lungs at 5 mg/kg administered intranasally for 5 days; format: functional; details: route nas, time 5 day
[11] = Cytotoxicity against MDCK cells assessed as reduction in cell viability incubated for 72 hrs by MTT assay; format: toxicity, cell-based, Canis lupus familiaris; details: dog
[12] = test system: Influenza A virus; assay: Antiviral activity against influenza A virus A/Pert/16/09(H3N2) infected in MDCK cells assessed as reduction in viral titer by agglutination assay; format: functional, organism-based
[13] = test system: Influenza A virus; assay: Antiviral activity against influenza A virus A/California/07/09(H1N1)pdm09 infected in MDCK cells assessed as reduction in viral titer by agglutination assay; format: functional, organism-based; details: A/California/07/09(H1N1)pdm09, MDCK
[14] = test system: Influenza A virus; assay: Antiviral activity against influenza A virus A/NIBRG/14/H5N1 infected in MDCK cells assessed as reduction in viral titer by agglutination assay; format: functional, organism-based; details: A/NIBRG/14/H5N1, MDCK
[15] = test system: Influenza B virus; assay: Antiviral activity against influenza B virus B/Brisben/60/08 infected in MDCK cells assessed as reduction in viral titer by agglutination assay; format: functional, organism-based; details: B/Brisben/60/08, MDCK

`COC(=O)CCCCCNC(=O)[C@H]1O[C@@H](O[C@H]2[C@H](O[C@H]3CC[C@]4(C)[C@H]5C(=O)C=C6[C@@H]7C[C@@](C)(C(=O)O)CC[C@]7(C)CC[C@@]6(C)[C@]5(C)CC[C@H]4C3(C)C)O[C@H](C(=O)NCCCCCC(=O)OC)[C@@H](O)[C@@H]2O)[C@H](O)[C@@H](O)[C@@H]1O` gave an EC50 [1] of 12.7 µg/mL (≈ 11.8 µM) and a CC50 at 48 h [2] of 408 µg/mL (≈ 379 µM).
With `CC1(C)[C@@H](O)CC[C@]2(C)[C@H]3C(=O)C=C4[C@@H]5C[C@@](C)(C(=O)O)CC[C@]5(C)CC[C@@]4(C)[C@]3(C)CC[C@@H]12` [ENOXOLONE] the CC50 at 48 h [3] was 7.4 µg/mL (≈ 15.7 µM) and the solubility [4] was < 10 µg/mL.
For `CC(=O)O[C@@H]1[C@@H](OC(C)=O)[C@H]2O[C@H]3[C@H](OC(C)=O)[C@@H](OC(C)=O)[C@@H](O[C@H]4[C@H](OC(C)=O)[C@@H](OC(C)=O)[C@@H](O[C@H]5[C@H](OC(C)=O)[C@@H](OC(C)=O)[C@@H](O[C@H]6[C@H](OC(C)=O)[C@@H](OC(C)=O)[C@@H](O[C@H]7[C@H](OC(C)=O)[C@@H](OC(C)=O)[C@@H](O[C@H]8[C@H](OC(C)=O)[C@@H](OC(C)=O)[C@@H](O[C@@H]1[C@@H](Cn1cc(CN9CCN(CCNC(=O)[C@@]%10(C)CC[C@]%11(C)CC[C@]%12(C)C(=CC(=O)[C@@H]%13[C@@]%14(C)CC[C@H](O)C(C)(C)[C@@H]%14CC[C@]%13%12C)[C@@H]%11C%10)CC9)nn1)O2)O[C@@H]8Cn1cc(CN2CCN(CCNC(=O)[C@@]8(C)CC[C@]9(C)CC[C@]%10(C)C(=CC(=O)[C@@H]%11[C@@]%12(C)CC[C@H](O)C(C)(C)[C@@H]%12CC[C@]%11%10C)[C@@H]9C8)CC2)nn1)O[C@@H]7Cn1cc(CN2CCN(CCNC(=O)[C@@]7(C)CC[C@]8(C)CC[C@]9(C)C(=CC(=O)[C@@H]%10[C@@]%11(C)CC[C@H](O)C(C)(C)[C@@H]%11CC[C@]%109C)[C@@H]8C7)CC2)nn1)O[C@@H]6Cn1cc(CN2CCN(CCNC(=O)[C@@]6(C)CC[C@]7(C)CC[C@]8(C)C(=CC(=O)[C@@H]9[C@@]%10(C)CC[C@H](O)C(C)(C)[C@@H]%10CC[C@]98C)[C@@H]7C6)CC2)nn1)O[C@@H]5Cn1cc(CN2CCN(CCNC(=O)[C@@]5(C)CC[C@]6(C)CC[C@]7(C)C(=CC(=O)[C@@H]8[C@@]9(C)CC[C@H](O)C(C)(C)[C@@H]9CC[C@]87C)[C@@H]6C5)CC2)nn1)O[C@@H]4Cn1cc(CN2CCN(CCNC(=O)[C@@]4(C)CC[C@]5(C)CC[C@]6(C)C(=CC(=O)[C@@H]7[C@@]8(C)CC[C@H](O)C(C)(C)[C@@H]8CC[C@]76C)[C@@H]5C4)CC2)nn1)O[C@@H]3Cn1cc(CN2CCN(CCNC(=O)[C@@]3(C)CC[C@]4(C)CC[C@]5(C)C(=CC(=O)[C@@H]6[C@@]7(C)CC[C@H](O)C(C)(C)[C@@H]7CC[C@]65C)[C@@H]4C3)CC2)nn1`, the CC50 at 48 h [5] was > 100000 nM and the IC50 [6] was 2860 nM.
Compound `O=c1cc(-c2ccccc2)oc2cc(O)c(O)c(O)c12` [BAICALEIN] has a bioavailability [7] of 2.2% and a solubility [8] of 0.15 µg/mL (≈ 0.555 µM).
With `CC1(C)[C@@H](SCCS[C@@H]2O[C@H](C(=O)O)[C@@H](O)[C@H](O)[C@H]2O)CC[C@]2(C)[C@H]3C(=O)C=C4[C@@H]5C[C@@](C)(C(=O)O)CC[C@]5(C)CC[C@@]4(C)[C@]3(C)CC[C@@H]12` the IC50 [9] was 54 µg/mL (≈ 74.7 µM) and the CC50 at 48 h [3] was > 250 µg/mL.
In the case of `COC(=O)[C@@]1(C)CC[C@]2(C)CC[C@]3(C)[C@H](C(=O)C=C4[C@@]5(C)C=C(C#N)C(=O)C(C)(C)[C@@H]5CC[C@]43C)[C@@H]2C1`, the “log(activity)” value [10] is reported as 2.3.
In the case of `CCOC(=O)C(Cc1c[nH]c2ccccc12)NC(=O)[C@H]1O[C@@H](O[C@H]2[C@H](O[C@H]3CC[C@]4(C)[C@H]5C(=O)C=C6[C@@H]7C[C@@](C)(C(=O)NC(Cc8c[nH]c9ccccc89)C(=O)OCC)CC[C@]7(C)CC[C@@]6(C)[C@]5(C)CC[C@H]4C3(C)C)O[C@H](C(=O)NC(Cc3c[nH]c4ccccc34)C(=O)OCC)[C@@H](O)[C@@H]2O)[C@H](O)[C@@H](O)[C@@H]1O` (stereo partly drawn), the CC50 at 72 h [11] is reported as > 500 µg/mL, the EC50 [12] is reported as 33 µg/mL (≈ 22.5 µM) and the EC50 [13] is reported as 44.5 µg/mL (≈ 30.4 µM). It also gave an EC50 [14] of 17.5 µg/mL (≈ 11.9 µM) and an EC50 [15] of 50 µg/mL (≈ 34.1 µM).
In the case of `CC(=O)N(CCS[C@@H]1O[C@H](C(=O)O)[C@@H](O)[C@H](O)[C@H]1O)[C@H]1CC[C@]2(C)[C@H]3C(=O)C=C4[C@@H]5C[C@@](C)(C(=O)O)CC[C@]5(C)CC[C@@]4(C)[C@]3(C)CC[C@H]2C1(C)C`, the IC50 [9] is reported as 87 µg/mL (≈ 116 µM) and the CC50 at 48 h [3] is reported as > 250 µg/mL.
In the case of `COC(=O)[C@H]1O[C@@H](SCCN(C(C)=O)[C@H]2CC[C@]3(C)[C@H]4C(=O)C=C5[C@@H]6C[C@@](C)(C(=O)O)CC[C@]6(C)CC[C@@]5(C)[C@]4(C)CC[C@H]3C2(C)C)[C@H](O)[C@@H](O)[C@@H]1O`, the IC50 [9] is reported as 72.1 µg/mL (≈ 94.6 µM) and the CC50 at 48 h [3] is reported as > 75 µg/mL.
For `COC(=O)C(Cc1c[nH]c2ccccc12)NC(=O)[C@H]1O[C@@H](O[C@H]2[C@H](O[C@H]3CC[C@]4(C)[C@H]5C(=O)C=C6[C@@H]7C[C@@](C)(C(=O)NC(Cc8c[nH]c9ccccc89)C(=O)OC)CC[C@]7(C)CC[C@@]6(C)[C@]5(C)CC[C@H]4C3(C)C)O[C@H](C(=O)NC(Cc3c[nH]c4ccccc34)C(=O)OC)[C@@H](O)[C@@H]2O)[C@H](O)[C@@H](O)[C@@H]1O` (stereo partly drawn), the CC50 at 72 h [11] was 620 µg/mL (≈ 435 µM), the EC50 [12] was 74.4 µg/mL (≈ 52.3 µM) and the EC50 [13] was 20.7 µg/mL (≈ 14.5 µM).
